Experimental data: patent publication US8916551B2, “Heterocyclic compound and use thereof” (Takeda Pharmaceutical Company Limited, priority 2010, dated 2014)

Target: T1, AMPA receptor (human GluR1 flip/stargazin expressed in CHO-K1 cells) (Homo sapiens, UniProt P42261)
T1 construct: expressed in transfected cells; host or cells: CHO-K1
Assay: AMPA receptor function enhancing activity using calcium influx as index
Assay type: cell-based
Settings: 100% = 3 mM glutamic acid + 300 μM cyclothiazide, 0% = 3 mM glutamic acid only
In short: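 CHO-K1 clone stably co-expressing human GluR1 flip and stargazin, loaded with Calcium 4 dye plus probenecid. Compound at 30 μM was added with glutamate (3 mM final) and fluorescence change followed over 3 min. Activity is expressed as % of the 3 mM glutamate plus 300 μM cyclothiazide response, with glutamate alone as 0%.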

[1] = test compound 30 μM with glutamic acid final 3 mM, change in fluorescence in 3 min
[2] = test compound 30 μM with 3 mM glutamic acid, change in fluorescence level in 3 min

T1 sequence (P42261 19-906 isoform P42261-2 limits assumed): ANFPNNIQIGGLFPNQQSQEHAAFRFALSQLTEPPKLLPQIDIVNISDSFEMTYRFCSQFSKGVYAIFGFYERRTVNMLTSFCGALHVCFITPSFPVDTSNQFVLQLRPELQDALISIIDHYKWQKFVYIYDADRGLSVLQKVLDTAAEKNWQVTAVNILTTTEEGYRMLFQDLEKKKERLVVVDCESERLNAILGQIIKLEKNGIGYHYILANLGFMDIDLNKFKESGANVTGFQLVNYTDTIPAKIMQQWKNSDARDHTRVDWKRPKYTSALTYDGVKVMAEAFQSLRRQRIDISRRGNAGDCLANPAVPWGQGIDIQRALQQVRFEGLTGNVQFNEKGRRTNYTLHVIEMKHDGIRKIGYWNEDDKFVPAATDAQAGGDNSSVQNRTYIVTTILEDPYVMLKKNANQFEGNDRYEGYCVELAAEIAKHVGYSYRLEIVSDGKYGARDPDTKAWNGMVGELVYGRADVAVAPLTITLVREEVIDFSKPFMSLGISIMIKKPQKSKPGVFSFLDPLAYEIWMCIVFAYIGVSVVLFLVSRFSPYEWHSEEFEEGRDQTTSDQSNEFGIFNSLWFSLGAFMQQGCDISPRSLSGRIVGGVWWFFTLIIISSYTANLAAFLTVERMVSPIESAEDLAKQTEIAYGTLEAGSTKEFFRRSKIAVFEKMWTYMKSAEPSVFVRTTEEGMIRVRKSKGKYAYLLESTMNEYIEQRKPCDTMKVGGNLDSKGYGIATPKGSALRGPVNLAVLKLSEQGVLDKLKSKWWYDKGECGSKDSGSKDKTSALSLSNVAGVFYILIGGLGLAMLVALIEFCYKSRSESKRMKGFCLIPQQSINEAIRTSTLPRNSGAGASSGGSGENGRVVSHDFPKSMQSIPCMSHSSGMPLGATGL
T1 sequence (Q9Y698 whole entry partner): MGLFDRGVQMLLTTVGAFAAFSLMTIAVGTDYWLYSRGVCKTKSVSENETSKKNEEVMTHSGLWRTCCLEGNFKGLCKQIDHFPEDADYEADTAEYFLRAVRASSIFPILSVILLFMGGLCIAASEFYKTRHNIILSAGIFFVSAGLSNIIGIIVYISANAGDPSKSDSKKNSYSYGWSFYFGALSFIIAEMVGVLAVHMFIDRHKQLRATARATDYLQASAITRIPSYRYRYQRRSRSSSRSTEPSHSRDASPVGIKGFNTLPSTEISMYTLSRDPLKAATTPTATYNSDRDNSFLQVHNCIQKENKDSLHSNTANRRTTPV

activity (%) [1] [%] | activity (%) [2] [%] | SMILES
79 | – | Cc1cc(Oc2ccc(C3CCCN4CCS(=O)(=O)N=C34)cc2)ccc1F (stereo not drawn) [Example 112, 9-[4-(4-fluoro-3-methylphenoxy)phenyl]-3,4,6,7,8,9-hexahydropyrido[2,1-c][1,2,4]thiadiazine 2,2-dioxide]
71 | – | Cc1cc(C(F)(F)F)ccc1Oc1ccc(C2=CC=CN3CCS(=O)(=O)N=C23)cc1 [Example 121, 9-{4-[2-methyl-4-(trifluoromethyl)phenoxy]phenyl}-3,4-dihydropyrido[2,1-c][1,2,4]thiadiazine 2,2-dioxide]
– | 56 | O=S1(=O)CCN2C=CC=C(c3ccc(C(F)(F)c4ccccc4)cc3)C2=N1 [Example 162, 9-{4-[difluoro(phenyl)methyl]phenyl}-3,4-dihydropyrido[2,1-c][1,2,4]thiadiazine 2,2-dioxide]
– | 71 | O=S1(=O)CCN2CCNC(c3ccc(Oc4ccccc4)cc3)C2=N1 (stereo not drawn) [Example 211, 9-(4-phenoxyphenyl)-3,4,6,7,8,9-hexahydropyrazino[2,1-c][1,2,4]thiadiazine 2,2-dioxide]
63 | – | COc1ccc2ccc(OC3CCCN4CCS(=O)(=O)N=C34)cc2c1 (stereo not drawn) [Example 60, 9-[(7-methoxynaphthalen-2-yl)oxy]-3,4,6,7,8,9-hexahydropyrido[2,1-c][1,2,4]thiadiazine 2,2-dioxide]
– | 84 | Cc1cc(F)ccc1Oc1ccc(C2CCCN3CCS(=O)(=O)N=C23)cc1 (stereo not drawn) [Example 145, 9-[4-(4-fluoro-2-methylphenoxy)phenyl]-3,4,6,7,8,9-hexahydropyrido[2,1-c][1,2,4]thiadiazine 2,2-dioxide]
– | 78 | CC(F)(F)c1ccc(C2CCCN3CCS(=O)(=O)N=C23)cc1 (stereo not drawn) [Example 231, 9-[4-(1,1-difluoroethyl)phenyl]-3,4,6,7,8,9-hexahydropyrido[2,1-c][1,2,4]thiadiazine 2,2-dioxide]
88 | – | O=S1(=O)CCN2C=CC=C(c3ccc(-n4nc(C(F)(F)F)cc4C4CC4)cc3)C2=N1 [Example 299, 9-{4-[5-cyclopropyl-3-(trifluoromethyl)-1H-pyrazol-1-yl]phenyl}-3,4-dihydropyrido[2,1-c][1,2,4]thiadiazine 2,2-dioxide]
– | 84 | O=S1(=O)CCN2C=CC=C(c3ccc(Oc4ccnc(C(F)(F)F)c4)cc3)C2=N1 [Example 257, 9-(4-{[2-(trifluoromethyl)pyridin-4-yl]oxy}phenyl)-3,4-dihydropyrido[2,1-c][1,2,4]thiadiazine 2,2-dioxide]
95 | – | CC(C)c1ccc(C(=O)NC2=CC=CN3CCS(=O)(=O)N=C23)cc1 [Example 37, N-(2,2-dioxido-3,4-dihydropyrido[2,1-c][1,2,4]thiadiazin-9-yl)-4-(1-methylethyl)benzamide]
– | 80 | O=S1(=O)CCN2CCCC(c3ccc(Oc4ccc(Cl)c(Cl)c4)cc3)C2=N1 (stereo not drawn) [Example 152, 9-[4-(3,4-dichlorophenoxy)phenyl]-3,4,6,7,8,9-hexahydropyrido[2,1-c][1,2,4]thiadiazine 2,2-dioxide]
83 | – | CC(=O)c1ccc(C2=CC=CN3CCS(=O)(=O)N=C23)cc1 [Example 400, 1-[4-(2,2-dioxido-3,4-dihydropyrido[2,1-c][1,2,4]thiadiazin-9-yl)phenyl]ethanone]
63 | – | O=S1(=O)CCN2CCNC(c3ccc(-c4ccccc4)c(F)c3)C2=N1 (stereo not drawn) [Example 345, 9-(2-fluorobiphenyl-4-yl)-3,4,6,7,8,9-hexahydropyrazino[2,1-c][1,2,4]thiadiazine 2,2-dioxide]
– | 57 | CCc1ccc(Oc2ccc(C3CCCN4CCS(=O)(=O)N=C34)cc2)cc1 (stereo not drawn) [Example 161, 9-[4-(4-ethylphenoxy)phenyl]-3,4,6,7,8,9-hexahydropyrido[2,1-c][1,2,4]thiadiazine 2,2-dioxide]
58 | – | CCc1cccc(Oc2ccc(C3CCCN4CCS(=O)(=O)N=C34)cc2)c1 (stereo not drawn) [Example 131, 9-[4-(3-ethylphenoxy)phenyl]-3,4,6,7,8,9-hexahydropyrido[2,1-c][1,2,4]thiadiazine 2,2-dioxide]
76 | – | O=S1(=O)CCN2CCCC(c3ccc(Oc4ccccc4)c(F)c3)C2=N1 (stereo not drawn) [Example 347, 9-(3-fluoro-4-phenoxyphenyl)-3,4,6,7,8,9-hexahydropyrido[2,1-c][1,2,4]thiadiazine 2,2-dioxide]
99 | – | O=C(c1ccccc1)c1ccc(C2=CC=CN3CCS(=O)(=O)N=C23)cc1 [Example 298, [4-(2,2-dioxido-3,4-dihydropyrido[2,1-c][1,2,4]thiadiazin-9-yl)phenyl](phenyl)methanone]
95 | – | O=S1(=O)CCN2C=CC=C(c3ccc(Oc4ccc5c(c4)OCC5)cc3)C2=N1 [Example 313, 9-[4-(2,3-dihydro-1-benzofuran-6-yloxy)phenyl]-3,4-dihydropyrido[2,1-c][1,2,4]thiadiazine 2,2-dioxide]

activity (%) [1] [%] | activity (%) [2] [%] | SMILES
88 | – | O=S1(=O)CCN2C=CC=C(c3ccc(N4CCCC4)cc3)C2=N1 [Example 80, 9-(4-pyrrolidin-1-ylphenyl)-3,4-dihydropyrido[2,1-c][1,2,4]thiadiazine 2,2-dioxide]
– | 96 | O=S1(=O)CCN2CCCC(c3ccc(-c4ccccc4Cl)cc3)C2=N1 (stereo not drawn) [Example 221, 9-(2′-chlorobiphenyl-4-yl)-3,4,6,7,8,9-hexahydropyrido[2,1-c][1,2,4]thiadiazine 2,2-dioxide]
– | 85 | O=S1(=O)CCN2CCC[C@@H](c3ccc(Oc4cccc(Cl)c4)cc3)C2=N1 [Example 203, (9S)-9-[4-(3-chlorophenoxy)phenyl]-3,4,6,7,8,9-hexahydropyrido[2,1-c][1,2,4]thiadiazine 2,2-dioxide]
75 | – | CCc1cccc(Oc2ccc(C3CCCN4CCS(=O)(=O)N=C34)cc2)c1 (stereo not drawn) [Example 132, 9-[4-(3-ethylphenoxy)phenyl]-3,4,6,7,8,9-hexahydropyrido[2,1-c][1,2,4]thiadiazine 2,2-dioxide]
63 | – | Cc1ccc(Cc2ccc(C3CCCN4CCS(=O)(=O)N=C34)cc2)cc1 (stereo not drawn) [Example 324, 9-[4-(4-methylbenzyl)phenyl]-3,4,6,7,8,9-hexahydropyrido[2,1-c][1,2,4]thiadiazine 2,2-dioxide]
100 | – | COc1ccc2cc(C3CCCN4CCS(=O)(=O)N=C34)ccc2c1 (stereo not drawn) [Example 129, 9-(6-methoxynaphthalen-2-yl)-3,4,6,7,8,9-hexahydropyrido[2,1-c][1,2,4]thiadiazine 2,2-dioxide]
– | 69 | COc1cc(Oc2ccc(C3CC(C)CN4CCS(=O)(=O)N=C34)cc2)ccc1F (stereo not drawn) [Example 164, 9-[4-(4-fluoro-3-methoxyphenoxy)phenyl]-7-methyl-3,4,6,7,8,9-hexahydropyrido[2,1-c][1,2,4]thiadiazine 2,2-dioxide]
– | 91 | O=S1(=O)CCN2C=C(Cl)C=C(c3ccc(Oc4cncc(C(F)(F)F)c4)cc3)C2=N1 [Example 260, 7-chloro-9-(4-{[5-(trifluoromethyl)pyridin-3-yl]oxy}phenyl)-3,4-dihydropyrido[2,1-c][1,2,4]thiadiazine 2,2-dioxide]
80 | – | Cc1ccc(C2=CC=CN3CCS(=O)(=O)N=C23)cc1F [Example 423, 9-(3-fluoro-4-methylphenyl)-3,4-dihydropyrido[2,1-c][1,2,4]thiadiazine 2,2-dioxide]
– | 74 | O=S1(=O)CCN2CCCC(c3ccc(C(F)(F)c4ccccc4)cc3)C2=N1 (stereo not drawn) [Example 163, 9-{4-[difluoro(phenyl)methyl]phenyl}-3,4,6,7,8,9-hexahydropyrido[2,1-c][1,2,4]thiadiazine 2,2-dioxide]
– | 72 | O=S1(=O)CCN2C=CC=C(c3ccc(Oc4cccc(C(F)(F)F)c4)cc3)C2=N1 [Example 187, 9-{4-[3-(trifluoromethyl)phenoxy]phenyl}-3,4-dihydropyrido[2,1-c][1,2,4]thiadiazine 2,2-dioxide]
81 | – | Cc1cc(C2CCCN3CCS(=O)(=O)N=C23)ccc1-c1ccccc1 (stereo not drawn) [Example 103, 9-(2-methylbiphenyl-4-yl)-3,4,6,7,8,9-hexahydropyrido[2,1-c][1,2,4]thiadiazine 2,2-dioxide]
– | 59 | CC(F)(F)c1ccc(C2CCCN3CCS(=O)(=O)N=C23)cc1 (stereo not drawn) [Example 230, 9-[4-(1,1-difluoroethyl)phenyl]-3,4,6,7,8,9-hexahydropyrido[2,1-c][1,2,4]thiadiazine 2,2-dioxide]
86 | – | O=S1(=O)CCN2CCCC(c3ccc(-c4ccccc4)c(F)c3)C2=N1 (stereo not drawn) [Example 97, 9-(2-fluorobiphenyl-4-yl)-3,4,6,7,8,9-hexahydropyrido[2,1-c][1,2,4]thiadiazine 2,2-dioxide]
98 | – | COc1cccc(-c2ccc(C3CCCN4CCS(=O)(=O)N=C34)cc2)c1 (stereo not drawn) [Example 106, 9-(3′-methoxybiphenyl-4-yl)-3,4,6,7,8,9-hexahydropyrido[2,1-c][1,2,4]thiadiazine 2,2-dioxide]
81 | – | O=S1(=O)CCN2C=CC=C(c3ccc(OC4CCC4)cc3)C2=N1 [Example 91, 9-[4-(cyclobutyloxy)phenyl]-3,4-dihydropyrido[2,1-c][1,2,4]thiadiazine 2,2-dioxide]
73 | – | CC1CC(c2ccc(Oc3ccccc3)cc2)C2=NS(=O)(=O)CCN2C1 (stereo not drawn) [Example 99, 7-methyl-9-(4-phenoxyphenyl)-3,4,6,7,8,9-hexahydropyrido[2,1-c][1,2,4]thiadiazine 2,2-dioxide]

SMILES | activity (%) [1] [%] | activity (%) [2] [%]
CC(C)(C)Oc1ccc(C2=CC=CN3CCS(=O)(=O)N=C23)cc1 [Example 411, 9-(4-tert-butoxyphenyl)-3,4-dihydropyrido[2,1-c][1,2,4]thiadiazine 2,2-dioxide] | 86 | –
